Test results from patent US11549123B2, “Plant EPSP synthases and methods of use” (PIONEER HI-BRED INTERNATIONAL, INC., priority 2015, dated 2023).
pKi: −log10 of the molar value.

Assays:
Assay type in all cases: biochemical
[1] = system: Helianthus annuus EPSPS with 868-H6 mutations, SEQ ID NO:10; assay: EPSPS substrate saturation kinetics, sunflower H6; settings: PEP
Protocol: (§1) EPSPS activity was determined by quantifying the phosphate generated from the EPSPS reaction. Release of inorganic phosphate was coupled to reaction with 2-amino-6-mercapto-7-methylpurine ribonucleoside, catalyzed by purine-nucleoside phosphorylase (M R Webb, Proc. Natl. Acad. Sci. 89:4884-4887, 1992). The absorbance change that occurs was monitored at 360 nm, where the extinction is 11,200 M^−1 cm^−1, with a Spectramax plate reader (Molecular Devices). To determine kinetic parameters, the varied substrate was present at seven concentrations (the eighth being the blank, containing no substrate) ranging from 4 to 400 uM and the unvaried substrate present at saturation. […] Reactions were monitored with a Spectramax plate reader. […] KI was then calculated from the following form of the Michaelis-Menten equation for competitive inhibition: KI=KM[I]/(KM app−KM) KM approximates the dissociation constant of the enzyme-substrate complex while kcat is the rate of conversion of substrate to product when the substrate concentration is saturating. kcat/KM is a widely accepted parameter for catalytic efficiency when substrate concentration is low (˜KM). […] The parameter kcat/KM×KI is used to quantify both catalytic efficiency and insensitivity and thus the overall fitness of the enzyme.
(§2) Native EPSPS amino acid sequences of rice (Oryza sativa) (SEQ ID NO:7), sorghum (Sorghum halepense) (SEQ ID NO:8), and sunflower (Helianthus annus) (SEQ ID NO:9) including the chloroplast transit peptide sequences were assembled and analyzed for mapping the corresponding amino acid mutations from the maize 868-H6. […]
(§3) ChloroP Prediction Server (Emanuelsson, O. et al. 1999. Protein Sci. 8(5):978-84) was used to approximate the amino terminus of the mature EPSPS proteins. […] The synthetic genes were cloned into a plasmid vector and expressed, purified and analyzed as described in Example 1.

[2] = molecular target: Zea mays EPSPS variant 771-C2 (A4W, H54M, L98C, G102A, K173R, I208L, K243E, E302S, T361S, E391P, D402G, A416G, V438R, S440R, T441Q, F442V), SEQ ID NO:4 (Zea mays, UniProt O24566, A3W/A415G/D401G/E301S/E390P/F441V/G101A/H53M/I207L/K172R/K242E/L97C/S439R/T360S/T440Q/V437R); assay: EPSPS substrate saturation kinetics, 771-C2
Protocol: as §1, with “enzyme. […]” for “enzyme.”

[3] = molecular target: Helianthus annuus EPSPS with 868-H6 mutations, SEQ ID NO:10 (Helianthus annuus, UniProt A0A251S0N3, A489G/D475G/E144Q/E375S/E464G/G175A/L171C/Q70R/R514Q/S352A/T434S/T72W/V156R/V281L/V511R); assay: EPSPS substrate saturation kinetics, sunflower H6
Protocol: as §1, §2, §3

[4] = molecular target: Sorghum halepense EPSPS with 868-H6 mutations, SEQ ID NO:12 (Sorghum halepense, UniProt H6T5X2, A1R/A3W/A415G/D401G/E301S/E390G/G101A/I207L/K83R/L97C/T278A/T360S/T440Q/V437R/V71Q); assay: EPSPS substrate saturation kinetics, sorghum H6
Protocol: as §1, with “enzyme. […]” for “enzyme.”

[5] = molecular target: Zea mays EPSPS variant 123-C1 (A2R, A4W, K84R, L98C, G102A, I208L, K243E, E391P, D402G), SEQ ID NO:6 (Zea mays, UniProt O24566, A1R/A3W/D401G/E390P/G101A/I207L/K242E/K83R/L97C); assay: EPSPS substrate saturation kinetics, 123-C1
Protocol: as §1, with “enzyme. […]” for “enzyme.”

[6] = molecular target: Zea mays EPSPS variant 4N (Zea mays, UniProt O24566, A3N); assay: EPSPS reaction rate with or without 10 uM glyphosate, 4N; settings: pH 7; read-out: Reaction rate with 10 μM glyph, % no glyph; also: 50 µM PEP and S3P
[7] = PEP as substrate, glyphosate as inhibitor

Chain of Sorghum halepense EPSPS with 868-H6 mutations, SEQ ID NO:12 (H6T5X2 entry or part of it with the stated changes): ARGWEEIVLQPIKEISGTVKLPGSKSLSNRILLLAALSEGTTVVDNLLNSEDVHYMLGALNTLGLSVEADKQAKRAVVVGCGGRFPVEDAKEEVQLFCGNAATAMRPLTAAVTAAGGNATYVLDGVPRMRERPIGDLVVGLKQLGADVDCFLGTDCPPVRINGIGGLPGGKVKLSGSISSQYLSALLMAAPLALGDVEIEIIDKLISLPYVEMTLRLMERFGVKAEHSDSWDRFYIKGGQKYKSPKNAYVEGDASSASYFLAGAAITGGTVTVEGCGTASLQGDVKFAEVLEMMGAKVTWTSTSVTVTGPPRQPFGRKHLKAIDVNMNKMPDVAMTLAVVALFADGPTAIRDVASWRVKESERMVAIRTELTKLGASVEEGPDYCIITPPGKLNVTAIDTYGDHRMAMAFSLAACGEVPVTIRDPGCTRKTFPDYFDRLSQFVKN
Chain of Helianthus annuus EPSPS with 868-H6 mutations, SEQ ID NO:10 (Helianthus annuus, UniProt A0A251S0N3, A489G/D475G/E144Q/E375S/E464G/G175A/L171C/Q70R/R514Q/S352A/T434S/T72W/V156R/V281L/V511R) (A0A251S0N3 67-518 with the stated changes): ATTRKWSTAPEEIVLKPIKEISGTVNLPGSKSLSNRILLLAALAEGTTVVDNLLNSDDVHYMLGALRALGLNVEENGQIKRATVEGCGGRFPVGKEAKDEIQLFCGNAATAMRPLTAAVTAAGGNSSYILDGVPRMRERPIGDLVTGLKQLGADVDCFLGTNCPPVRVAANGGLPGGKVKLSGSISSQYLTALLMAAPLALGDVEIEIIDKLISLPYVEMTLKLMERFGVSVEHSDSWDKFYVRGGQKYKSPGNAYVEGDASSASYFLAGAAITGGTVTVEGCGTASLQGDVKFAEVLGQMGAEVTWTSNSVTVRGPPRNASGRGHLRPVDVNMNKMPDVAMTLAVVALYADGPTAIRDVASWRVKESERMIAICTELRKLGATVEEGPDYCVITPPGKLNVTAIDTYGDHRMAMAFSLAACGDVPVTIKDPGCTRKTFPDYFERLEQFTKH
Chain of Zea mays EPSPS variant 123-C1 (A2R, A4W, K84R, L98C, G102A, I208L, K243E, E391P, D402G), SEQ ID NO:6 (O24566 entry or part of it A1R/A3W/K83R/L97C/G101A/I207L/K242E/E390P/D401G): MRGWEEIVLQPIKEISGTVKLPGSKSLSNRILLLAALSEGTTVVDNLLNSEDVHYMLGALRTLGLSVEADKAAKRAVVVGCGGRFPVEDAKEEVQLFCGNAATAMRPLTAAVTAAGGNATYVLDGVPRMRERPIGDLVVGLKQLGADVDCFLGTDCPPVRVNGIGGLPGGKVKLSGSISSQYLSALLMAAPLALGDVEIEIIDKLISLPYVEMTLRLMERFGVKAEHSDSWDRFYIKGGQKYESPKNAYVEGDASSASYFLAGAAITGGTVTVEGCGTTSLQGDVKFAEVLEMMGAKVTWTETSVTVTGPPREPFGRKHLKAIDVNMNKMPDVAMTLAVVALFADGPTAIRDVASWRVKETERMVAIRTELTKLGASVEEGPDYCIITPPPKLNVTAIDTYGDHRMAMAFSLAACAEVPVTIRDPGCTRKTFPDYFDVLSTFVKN
Chain of Zea mays EPSPS variant 4N (O24566 entry or part of it A3N): as the sequence (O24566 entry or part of it A1R/A3W/K83R/L97C/G101A/I207L/K242E/E390P/D401G) above, with R2A, W4N, R84K, C98L, A102G, L208I, E243K, P391E, G402D counted along it

Compound | kcat/KM relative to maize H6 [1] [%] | pKi [2] | (kcat/KM)*KI [2, 7] | pKi [3] | (kcat/KM)*KI [3, 7] | pKi [4] | (kcat/KM)*KI [4, 7] | pKi [5] | (kcat/KM)*KI [5, 7] | activity at 10 µM [6] [%]
C=C(OP(=O)(O)O)C(=O)O [PEP, phosphoenolpyruvate] | 38 | – | – | – | – | – | – | – | – | –
O=C(O)CNCP(=O)(O)O [glyphosate, N-phosphonomethylglycine] | – | 3.46 | 5800 | 2.80 | 8960 | 3.11 | 8080 | 3.25 | 10100 | 7.56
